{"source": "ChEMBL document CHEMBL1201862", "about": "“PubChem BioAssay data set” (2004)", "key": {"[1]": {"molecular_target": "T1, Heat shock factor protein 1 (Mus musculus, UniProt P38532)", "T1 sequence (P38532 whole entry)": "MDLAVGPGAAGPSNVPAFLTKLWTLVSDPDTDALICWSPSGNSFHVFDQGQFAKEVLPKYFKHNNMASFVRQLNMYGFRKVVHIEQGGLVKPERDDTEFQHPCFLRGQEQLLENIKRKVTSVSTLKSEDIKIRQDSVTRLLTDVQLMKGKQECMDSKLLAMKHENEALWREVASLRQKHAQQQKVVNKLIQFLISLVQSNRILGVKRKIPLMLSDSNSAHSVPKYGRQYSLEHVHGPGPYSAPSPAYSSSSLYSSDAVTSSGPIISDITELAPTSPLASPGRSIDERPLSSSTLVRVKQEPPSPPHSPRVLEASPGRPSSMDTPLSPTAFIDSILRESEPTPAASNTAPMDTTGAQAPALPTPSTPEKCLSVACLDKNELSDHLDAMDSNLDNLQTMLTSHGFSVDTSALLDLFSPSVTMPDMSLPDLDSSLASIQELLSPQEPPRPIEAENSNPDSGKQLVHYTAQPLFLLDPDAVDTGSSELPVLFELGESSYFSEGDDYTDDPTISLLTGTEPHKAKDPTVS", "experiment": "HSF1 potentiators in luciferase reporter cells, confirmation, cell-based, NIH3T3, luminescence, dose retest (AID 435004);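 note: stress induced by proteasome inhibitor MG132 added 30 min after compound; actives raise luminescence as potentiators of the MG132 stress response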", "type": "functional"}, "[2]": {"experiment": "Luminescence Cell-Based Dose Response HTS to Identify Inhibitors of 5'UTR Stem-Loop Driven Prion Protein mRNA Translation in H4 Neuroglioblastoma Cells. [Related pubchem assays: 1827 (Project Summary), 1813 (Primary HTS)]", "type": "functional"}, "[3]": {"experiment": "inhibitors of firefly luciferase expression or activity, dose response, H4 neuroglioma cells, luminescence (AID 1990)", "type": "functional, cell-based"}, "[4]": {"experiment": "inhibitors of SNCA 5'UTR-driven reporter translation, confirmation, H4 neuroglioma cells, luminescence (AID 1988)", "type": "functional, cell-based"}, "Paired box protein Pax-8": {"molecular_target": "Paired box protein Pax-8 (Homo sapiens, UniProt Q06710)", "sequence (Q06710 whole entry)": "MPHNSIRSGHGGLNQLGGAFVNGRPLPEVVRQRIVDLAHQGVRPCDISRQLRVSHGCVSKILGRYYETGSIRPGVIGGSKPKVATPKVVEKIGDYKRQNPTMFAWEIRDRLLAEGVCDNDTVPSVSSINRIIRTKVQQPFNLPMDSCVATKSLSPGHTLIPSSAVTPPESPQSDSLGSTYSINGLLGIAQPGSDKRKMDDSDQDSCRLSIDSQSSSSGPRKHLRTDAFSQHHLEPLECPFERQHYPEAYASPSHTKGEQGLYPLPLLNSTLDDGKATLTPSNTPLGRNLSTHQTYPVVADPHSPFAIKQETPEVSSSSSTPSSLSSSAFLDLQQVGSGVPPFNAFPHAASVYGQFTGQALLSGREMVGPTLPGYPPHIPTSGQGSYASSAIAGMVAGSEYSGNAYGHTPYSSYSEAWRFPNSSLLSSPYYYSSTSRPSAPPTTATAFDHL", "experiment": "inhibitors of PAX8-driven TPO luciferase reporter, dose response, RMG-I cells, cherry-pick (AID 687027);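 note: luciferase reporter driven by Pax8 target thyroperoxidase promoter measured by SteadyGlo luminescence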", "type": "functional, cell-based"}, "[5]": {"experiment": "Shn3 3'UTR reporter inhibitors, dose response, cell-based, Clone20 osteoblasts, firefly luciferase, cherry-picked (AID 624132)", "type": "functional"}, "Cytochrome P450 1A2": {"molecular_target": "T2, Cytochrome P450 1A2 (Homo sapiens, UniProt P05177)", "T2 sequence (P05177 whole entry)": "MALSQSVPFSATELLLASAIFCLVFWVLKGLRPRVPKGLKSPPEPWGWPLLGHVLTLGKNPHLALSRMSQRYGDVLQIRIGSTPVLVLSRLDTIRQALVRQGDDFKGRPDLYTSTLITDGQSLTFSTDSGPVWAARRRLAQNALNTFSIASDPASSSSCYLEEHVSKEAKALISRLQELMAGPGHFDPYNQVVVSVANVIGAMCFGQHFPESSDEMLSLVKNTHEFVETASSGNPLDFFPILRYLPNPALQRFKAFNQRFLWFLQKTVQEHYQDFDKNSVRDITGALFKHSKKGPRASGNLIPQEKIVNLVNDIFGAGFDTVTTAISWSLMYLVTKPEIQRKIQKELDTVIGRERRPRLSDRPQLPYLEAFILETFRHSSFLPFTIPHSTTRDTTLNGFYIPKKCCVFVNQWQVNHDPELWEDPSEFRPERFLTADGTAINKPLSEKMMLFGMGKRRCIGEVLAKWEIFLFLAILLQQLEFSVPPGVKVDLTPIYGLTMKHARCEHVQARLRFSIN"}, "Cytochrome P450 3A4": {"molecular_target": "Cytochrome P450 3A4 (Homo sapiens, UniProt P08684)", "sequence (P08684 whole entry)": "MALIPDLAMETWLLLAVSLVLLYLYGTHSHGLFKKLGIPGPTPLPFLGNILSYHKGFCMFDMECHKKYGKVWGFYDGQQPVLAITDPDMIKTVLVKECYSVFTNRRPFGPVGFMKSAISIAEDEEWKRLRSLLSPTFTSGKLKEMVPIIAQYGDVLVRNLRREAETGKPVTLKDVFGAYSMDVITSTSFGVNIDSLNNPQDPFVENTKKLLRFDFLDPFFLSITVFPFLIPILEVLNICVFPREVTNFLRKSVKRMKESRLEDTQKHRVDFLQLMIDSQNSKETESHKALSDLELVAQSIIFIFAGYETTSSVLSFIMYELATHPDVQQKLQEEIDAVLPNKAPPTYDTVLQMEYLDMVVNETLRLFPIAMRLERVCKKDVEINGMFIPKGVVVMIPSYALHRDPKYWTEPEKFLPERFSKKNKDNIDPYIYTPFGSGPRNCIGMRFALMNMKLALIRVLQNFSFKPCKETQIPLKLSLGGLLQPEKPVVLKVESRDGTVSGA"}, "H9c2": {"tested_on": "H9c2", "experiment": "cells", "type": "functional, cell-based", "conditions": "Rattus norvegicus, H9c2, Myocardium"}, "Cytochrome P450 2C19": {"molecular_target": "Cytochrome P450 2C19 (Homo sapiens, UniProt P33261)", "sequence (P33261 whole entry)": "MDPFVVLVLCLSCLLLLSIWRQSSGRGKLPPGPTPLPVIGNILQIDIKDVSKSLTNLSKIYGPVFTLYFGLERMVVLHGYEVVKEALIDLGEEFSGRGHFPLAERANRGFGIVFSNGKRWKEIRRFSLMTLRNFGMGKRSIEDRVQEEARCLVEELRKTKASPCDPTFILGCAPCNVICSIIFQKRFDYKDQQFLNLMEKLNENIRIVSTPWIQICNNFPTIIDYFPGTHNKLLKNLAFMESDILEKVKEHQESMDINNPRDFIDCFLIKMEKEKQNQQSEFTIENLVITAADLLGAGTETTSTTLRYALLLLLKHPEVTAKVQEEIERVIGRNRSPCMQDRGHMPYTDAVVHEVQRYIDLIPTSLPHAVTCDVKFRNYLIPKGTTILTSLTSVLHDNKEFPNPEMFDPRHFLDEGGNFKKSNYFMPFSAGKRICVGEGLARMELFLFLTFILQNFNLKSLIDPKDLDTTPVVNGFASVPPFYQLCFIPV", "experiment": "Cytochrome panel assay with activity outcomes. Panel member name: p450-cyp2c19 Compounds with AC50 equal or less than 10 uM are considered active", "type": "functional"}, "[6]": {"experiment": "HEp-2 cell cytotoxicity, dose response, cytotoxicity control for RSV inhibitor project, HTS (AID 2410)", "type": "functional", "conditions": "human respiratory syncytial virus"}}, "note": "Several values for one entry are separate records, joined by “and”; a condition that tells them apart may be missing. Identical values can stand only once. Counter-ions that a name gives are not always drawn. Activity calls are given as the source filed them.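 Throughout, for IC50: confirmatory concentration-response retest of ultra-high-throughput screening hits for modulation of myocardial damage; cell death induced by hydrogen peroxide oxidative stress; compound pretreatment for 60 min then peroxide exposure for 2 h; potency is for protecting the cells against peroxide damage rather than for killing them.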", "data": [{"smiles": "C[C@H](NC(=O)[C@@H]1CSC2c3ccccc3C(=O)N21)C(=O)NCCc1ccccc1", "note": "(some centres not stated)", "values": [{"measurement": "EC50", "setting": "[1]", "result": "248 µM (active)"}]}, {"smiles": "Cc1ccc(NC(=NOCc2ccc(Cl)cc2Cl)c2nonc2N)c(C)c1", "values": [{"measurement": "EC50", "setting": "[1]", "result": "> 260 µM (inactive)"}]}, {"smiles": "Cc1ccc(C)c(Nc2c([N+](=O)[O-])ccc3nonc23)c1", "values": [{"measurement": "EC50", "setting": "[2]", "result": "> 120 µM (not active)"}, {"measurement": "EC50", "setting": "[3]", "result": "19.9 µM (active)"}, {"measurement": "EC50", "setting": "[4]", "result": "53.7 µM (active)"}]}, {"smiles": "CC(=O)OC(C)(C)/C=C/C(=O)[C@](C)(O)C1[C@H](O)C[C@@]2(C)C3CC=C4C(C=C(O[C@@H]5O[C@H](CO)[C@@H](O)[C@H](O)[C@H]5O)C(=O)C4(C)C)[C@]3(C)C(=O)C[C@]12C", "note": "(some centres not stated)", "values": [{"measurement": "AC50", "setting": "Paired box protein Pax-8", "result": "7.14 µM (active)"}]}, {"smiles": "CC(C)NCC(O)COc1cccc2ccccc12", "note": "(configuration not stated) [PROPRANOLOL HYDROCHLORIDE]", "values": [{"measurement": "AC50", "setting": "[5]", "result": "23.6 µM (active)"}]}, {"smiles": "CC1=Nc2ccccc2/C1=C/c1nc(-c2ccc(C)s2)oc1O", "values": [{"measurement": "EC50", "setting": "[1]", "result": "21.4 µM (active)"}]}, {"smiles": "CCOC(=O)COc1ccc(/C=C2/S/C(=N/c3ccccc3)N(Cc3cccnc3)C2=O)cc1OC", "values": [{"measurement": "EC50", "setting": "[1]", "result": "31.7 µM (active)"}]}, {"smiles": "Brc1ccc2c(c1)C(c1cccnc1)=NNC(c1cccs1)=N2", "values": [{"measurement": "EC50", "setting": "[1]", "result": "93.6 µM (active)"}]}, {"smiles": "Cn1c2ccc(F)cc2c2ncn(CCN3CCOCC3)c(=O)c21", "values": [{"measurement": "EC50", "setting": "[1]", "result": "> 260 µM (inactive)"}]}, {"smiles": "O=C(NC12CC3CC(CC(C3)C1)C2)N1CCN(c2nc(-c3ccccc3)cs2)CC1", "values": [{"measurement": "AC50", "setting": "Cytochrome P450 1A2", "result": "6.31 µM (inconclusive)"}, {"measurement": "AC50", "setting": "Cytochrome P450 3A4", "result": "11.2 µM (inconclusive)"}]}, {"smiles": "COC(=O)C1(CC(C)C)C=C2C(=C(c3ccccc3)C(=O)C2C)CN1", "note": "(configuration not stated)", "values": [{"measurement": "AC50", "setting": "Cytochrome P450 1A2", "result": "15.8 µM (inconclusive)"}, {"measurement": "AC50", "setting": "Cytochrome P450 3A4", "result": "25.1 µM (inconclusive)"}]}, {"smiles": "COc1ccccc1OCC(=O)Nc1cccc(-c2nnc(-c3ccco3)o2)c1", "values": [{"measurement": "IC50", "setting": "H9c2", "result": "> 79 µM (inactive)"}]}, {"smiles": "C[C@@H]1OC=C2[C@@H](O)[C@H]3O[C@H]3C(=O)[C@]23[C@@H]2O[C@H](C)C(C4=C2[C@@H](O)[C@H]2O[C@@H]2C4=O)[C@@H]13", "values": [{"measurement": "AC50", "setting": "Cytochrome P450 2C19", "result": "inconclusive"}]}, {"smiles": "O=C(NCC1CCCO1)C1CCC(=O)N1CCc1ccccc1", "note": "(configuration not stated)", "values": [{"measurement": "AC50", "setting": "Cytochrome P450 2C19; read-out: AC50", "result": "7.08 µM (inconclusive)"}]}, {"smiles": "COC(=O)c1ccccc1NC(=O)CSc1nc(Nc2ccccc2)nc(N2CCOCC2)n1", "values": [{"measurement": "EC50", "setting": "[1]", "result": "> 260 µM (inactive)"}]}, {"smiles": "COc1ccc(Br)cc1C(=O)Nc1cccc(NC(=O)c2ccco2)c1", "values": [{"measurement": "IC50", "setting": "H9c2", "result": "> 79 µM (inactive)"}, {"measurement": "CC50", "setting": "[6]", "result": "29.1 µM (active)"}]}, {"smiles": "CC1=CC(=O)N(c2cccc(C(F)(F)F)c2)C1c1ccc(Cl)cc1", "note": "(configuration not stated)", "values": [{"measurement": "AC50", "setting": "Cytochrome P450 1A2", "result": "14.1 µM (inconclusive)"}, {"measurement": "AC50", "setting": "Cytochrome P450 3A4", "result": "10 µM (inconclusive)"}]}, {"smiles": "N[C@H](C(=O)O)c1cc(O)cc(O)c1", "values": [{"measurement": "AC50", "setting": "Cytochrome P450 2C19; read-out: AC50", "result": "15.8 µM (inconclusive) and 10 µM (inconclusive)"}, {"measurement": "AC50", "setting": "Cytochrome P450 1A2", "result": "31.6 µM (inconclusive)"}]}, {"smiles": "COC(=O)C1=C(C)n2nnnc2NC1c1ccc(Cl)cc1", "note": "(configuration not stated)", "values": [{"measurement": "EC50", "setting": "[2]", "result": "> 120 µM (not active)"}, {"measurement": "EC50", "setting": "[3]", "result": "20.6 µM (active)"}, {"measurement": "EC50", "setting": "[4]", "result": "> 120 µM (not active)"}]}, {"smiles": "Nc1ccc(Sc2cc(Cl)nc(N)n2)cc1", "values": [{"measurement": "EC50", "setting": "[2]", "result": "> 120 µM (not active)"}, {"measurement": "EC50", "setting": "[3]", "result": "> 120 µM (not active)"}, {"measurement": "EC50", "setting": "[4]", "result": "99.5 µM (active)"}]}, {"smiles": "COC(=O)Sc1nc(N2CCOCC2)c2c(c1C#N)CC(C)(C)OC2", "values": [{"measurement": "IC50", "setting": "H9c2", "result": "38.6 µM (inactive)"}]}]}
